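Cells were grown in 96-well plates and exposed to each compound for 48 hours at five concentrations; endpoints were interpolated linearly between bracketing concentrations, or set to the highest concentration if not reached. GI50 = concentration required for 50% inhibition of growth.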 The source made the active and inactive calls. Rule as the data show it: active = GI50 up to about 1.1 µM and inactive = higher.
Assays:
Test in all cases: growth of human tumour cells (NCI), 48 h
[1] = system: SR
[2] = system: SK-MEL-28
[3] = system: A549
[4] = system: NCI/ADR-RES
[5] = system: SNB-75
[6] = system: HCT-15
[7] = system: MDA-MB-435
[8] = system: K562
[9] = system: T47D
[10] = system: M14
[11] = system: SW-620
[12] = system: HOP-62
[13] = system: SF-539
[14] = system: HOP-92
[15] = system: NCI-H23
[16] = system: OVCAR-8
[17] = system: HCT-116
[18] = system: Hs-578T
[19] = system: SF-295
[20] = system: LOX IMVI

## CSc1cccc(NC(=O)OC2CCCCCCCCCCC2)c1
[1]
  GI50: 26.9 µM (inactive)
[2]
  GI50: 39.7 µM (inactive)
[3]
  GI50: 26.9 µM (inactive)
[4]
  GI50: 21.4 µM (inactive)
[5]
  GI50: 35.2 µM (inactive)
[6]
  GI50: 28.8 µM
[7]
  GI50: 15.7 µM (inactive)
[8]
  GI50: 16.4 µM (inactive)
[9]
  GI50: 25.4 µM (inactive)
[10]
  GI50: 22.3 µM (inactive)
[11]
  GI50: 18.8 µM (inactive)
[12]
  GI50: 18.8 µM (inactive)
[13]
  GI50: 24.4 µM (inactive)
[14]
  GI50: 27.4 µM (inactive)
[15]
  GI50: 24.4 µM (inactive)
[16]
  GI50: 26.7 µM (inactive)
[17]
  GI50: 15.1 µM (inactive)
[18]
  GI50: 34.4 µM (inactive)
[19]
  GI50: 11.9 µM (inactive)
[20]
  GI50: 18 µM (inactive)

## Cn1c(=O)c2c(ncn2CN2CCN(Cn3cnc4c3c(=O)n(C)c(=O)n4C)CC2)n(C)c1=O
[1]
  GI50: 28.6 µM (inactive)
[2]
  GI50: 48.1 µM (inactive)
[3]
  GI50: 34.2 µM (inactive)
[4]
  GI50: > 100 µM (inactive)
[5]
  GI50: 74.8 µM (inactive)
[6]
  GI50: 27.6 µM
[7]
  GI50: 86.5 µM (inactive)
[8]
  GI50: 31.7 µM (inactive)
[9]
  GI50: 30.5 µM (inactive)
[10]
  GI50: 38.5 µM (inactive)
[11]
  GI50: 23.2 µM (inactive)
[12]
  GI50: > 100 µM (inactive)
[13]
  GI50: 56.2 µM (inactive)
[14]
  GI50: 52 µM (inactive)
[15]
  GI50: 65.9 µM (inactive)
[16]
  GI50: 44.6 µM (inactive)
[17]
  GI50: 16.9 µM (inactive)
[18]
  GI50: > 100 µM (inactive)
[19]
  GI50: > 100 µM (inactive)
[20]
  GI50: 24.2 µM (inactive)

## CCOC(=O)OC1C(Br)C2CCC1(C)C2(C)C (stereo not given)
[1]
  GI50: 2.39 µM (inactive)
[2]
  GI50: 15.7 µM (inactive)
[3]
  GI50: 16 µM (inactive)
[4]
  GI50: 15.5 µM (inactive)
[5]
  GI50: 11.1 µM (inactive)
[6]
  GI50: 13.7 µM
[7]
  GI50: 11.4 µM (inactive)
[8]
  GI50: 5.79 µM (inactive)
[9]
  GI50: 15.6 µM (inactive)
[10]
  GI50: 12.6 µM (inactive)
[11]
  GI50: 16.1 µM (inactive)
[12]
  GI50: 16.6 µM (inactive)
[13]
  GI50: 14.1 µM (inactive)
[14]
  GI50: 13.2 µM (inactive)
[15]
  GI50: 17.2 µM (inactive)
[16]
  GI50: 16 µM (inactive)
[17]
  GI50: 6.44 µM (inactive)
[18]
  GI50: 13.8 µM (inactive)
[19]
  GI50: 15.3 µM (inactive)
[20]
  GI50: 6.59 µM (inactive)

## CCCCCCCCCCCCCCCCCCNc1ccn(C2OC(COP(=O)(O)OCCCCCCCCCCCCCCCC)C(O)C2O)c(=O)n1 (stereo not given)
[1]
  GI50: > 100 µM (inactive)
[2]
  GI50: > 100 µM (inactive)
[3]
  GI50: > 100 µM (inactive)
[4]
  GI50: > 100 µM (inactive)
[5]
  GI50: 74.1 µM (inactive)
[6]
  GI50: > 100 µM
[7]
  GI50: > 100 µM (inactive)
[8]
  GI50: > 100 µM (inactive)
[9]
  GI50: > 100 µM (inactive)
[10]
  GI50: > 100 µM (inactive)
[11]
  GI50: > 100 µM (inactive)
[12]
  GI50: > 100 µM (inactive)
[13]
  GI50: > 100 µM (inactive)
[14]
  GI50: > 100 µM (inactive)
[15]
  GI50: > 100 µM (inactive)
[16]
  GI50: > 100 µM (inactive)
[17]
  GI50: > 100 µM (inactive)
[18]
  GI50: 83.8 µM (inactive)
[19]
  GI50: > 100 µM (inactive)
[20]
  GI50: 82 µM (inactive)

## C=C1C(=O)OC2C1C(OC(=O)/C(C)=C/C)CC(O)(CCl)C1C(O)C3OC3(C)C21O (stereo not given)
[1]
  GI50: 17 µM (inactive)
[2]
  GI50: > 50 µM (inactive)
[3]
  GI50: > 50 µM (inactive)
[4]
  GI50: > 50 µM (inactive)
[5]
  GI50: > 50 µM (inactive)
[6]
  GI50: 17.1 µM
[7]
  GI50: 48.5 µM (inactive)
[8]
  GI50: 18 µM (inactive)
[9]
  GI50: 23.8 µM (inactive)
[10]
  GI50: 23.3 µM (inactive)
[11]
  GI50: 13.4 µM (inactive)
[12]
  GI50: > 50 µM (inactive)
[13]
  GI50: > 50 µM (inactive)
[14]
  GI50: 24.9 µM (inactive)
[15]
  GI50: 34.5 µM (inactive)
[16]
  GI50: 13.2 µM (inactive)
[17]
  GI50: 10.8 µM (inactive)
[18]
  GI50: > 50 µM (inactive)
[19]
  GI50: > 50 µM (inactive)
[20]
  GI50: 18.9 µM (inactive)

## Nc1cc2c(c3ccccc13)C(CCl)CN2C(=O)c1cc2cc(NC(=O)Nc3ccc4[nH]c(C(=O)N5CC(CCl)c6c5cc(N)c5ccccc65)cc4c3)ccc2[nH]1 (stereo not given)
[1]
  GI50: < 0.01 µM (active)
[2]
  GI50: 0.659 µM (active)
[3]
  GI50: 0.0478 µM (active)
[4]
  GI50: 1.31 µM (inactive)
[5]
  GI50: 0.0297 µM (active)
[6]
  GI50: 1.96 µM
[7]
  GI50: 0.548 µM (active)
[8]
  GI50: 0.367 µM (active)
[9]
  GI50: < 0.0377 µM (active)
[10]
  GI50: < 0.0303 µM (active)
[11]
  GI50: 0.075 µM (active)
[12]
  GI50: 0.0568 µM (active)
[13]
  GI50: 0.0194 µM (active)
[14]
  GI50: 2.19 µM (inactive)
[15]
  GI50: 0.0239 µM (active)
[16]
  GI50: 0.0678 µM (active)
[17]
  GI50: 0.172 µM (active)
[18]
  GI50: 1.35 µM (inactive)
[19]
  GI50: 0.0404 µM (active)
[20]
  GI50: 0.0358 µM (active)

## Clc1ccc2c(NCCCCN3OC3c3ccccc3)ccnc2c1 (stereo not given)
[1]
  GI50: 1.69 µM (inactive)
[2]
  GI50: 3.64 µM (inactive)
[3]
  GI50: 5.62 µM (inactive)
[4]
  GI50: 18.5 µM (inactive)
[5]
  GI50: 5.82 µM (inactive)
[6]
  GI50: 10.4 µM
[7]
  GI50: 4.47 µM (inactive)
[8]
  GI50: 2.44 µM (inactive)
[9]
  GI50: 5.53 µM (inactive)
[10]
  GI50: 3.23 µM (inactive)
[11]
  GI50: 5.21 µM (inactive)
[12]
  GI50: 4.75 µM (inactive)
[13]
  GI50: 1.98 µM (inactive)
[14]
  GI50: 10.5 µM (inactive)
[15]
  GI50: 15.8 µM (inactive)
[16]
  GI50: 3.71 µM (inactive)
[17]
  GI50: 2.06 µM (inactive)
[18]
  GI50: 14.6 µM (inactive)
[19]
  GI50: 12.2 µM (inactive)
[20]
  GI50: 2.13 µM (inactive)

## CCOC(=O)/C=C(\C(=O)OCC)n1ccc(=O)n(CC(=O)OCC)c1=O
[1]
  GI50: 2.17 µM (inactive)
[2]
  GI50: 6.25 µM (inactive)
[3]
  GI50: 17.2 µM (inactive)
[4]
  GI50: 9.57 µM (inactive)
[5]
  GI50: 9.75 µM (inactive)
[6]
  GI50: 1.83 µM
[7]
  GI50: 5.85 µM (inactive)
[8]
  GI50: 1.68 µM (inactive)
[9]
  GI50: 2.44 µM (inactive)
[10]
  GI50: 2.09 µM (inactive)
[11]
  GI50: 1.23 µM (inactive)
[12]
  GI50: 20.7 µM (inactive)
[13]
  GI50: 16.6 µM (inactive)
[14]
  GI50: 1.45 µM (inactive)
[15]
  GI50: 8.07 µM (inactive)
[16]
  GI50: 5.25 µM (inactive)
[17]
  GI50: 1.77 µM (inactive)
[18]
  GI50: 20 µM (inactive)
[19]
  GI50: 17.9 µM (inactive)
[20]
  GI50: 2.11 µM (inactive)

## Cc1ccc2c(c1)C(=O)C1(C2)Cc2cccc(C)c2C1=O (stereo not given)
[1]
  GI50: > 100 µM (inactive)
[2]
  GI50: > 100 µM (inactive)
[3]
  GI50: > 100 µM (inactive)
[4]
  GI50: > 100 µM (inactive)
[5]
  GI50: > 100 µM (inactive)
[6]
  GI50: > 100 µM
[7]
  GI50: > 100 µM (inactive)
[8]
  GI50: > 100 µM (inactive)
[9]
  GI50: > 100 µM (inactive)
[10]
  GI50: > 100 µM (inactive)
[11]
  GI50: > 100 µM (inactive)
[12]
  GI50: 88.9 µM (inactive)
[13]
  GI50: > 100 µM (inactive)
[14]
  GI50: 55 µM (inactive)
[15]
  GI50: > 100 µM (inactive)
[16]
  GI50: > 100 µM (inactive)
[17]
  GI50: > 100 µM (inactive)
[18]
  GI50: > 100 µM (inactive)
[19]
  GI50: > 100 µM (inactive)
[20]
  GI50: > 100 µM (inactive)

## C=C1C/C(=C/C)C(=O)O[C@@H]2CCN3CC=C(COC(=O)[C@]1(C)O)[C@H]23 [SENECIPHYLLINE]
[1]
  GI50: > 100 µM (inactive)
[2]
  GI50: > 100 µM (inactive)
[3]
  GI50: > 100 µM (inactive)
[4]
  GI50: > 100 µM (inactive)
[5]
  GI50: > 100 µM (inactive)
[6]
  GI50: > 100 µM
[7]
  GI50: > 100 µM (inactive)
[8]
  GI50: > 100 µM (inactive)
[9]
  GI50: > 100 µM (inactive)
[10]
  GI50: > 100 µM (inactive)
[11]
  GI50: > 100 µM (inactive)
[12]
  GI50: > 100 µM (inactive)
[13]
  GI50: > 100 µM (inactive)
[14]
  GI50: > 100 µM (inactive)
[15]
  GI50: > 100 µM (inactive)
[16]
  GI50: > 100 µM (inactive)
[17]
  GI50: > 100 µM (inactive)
[18]
  GI50: > 100 µM (inactive)
[19]
  GI50: > 100 µM (inactive)
[20]
  GI50: > 100 µM (inactive)

Source: ChEMBL document CHEMBL1201862, “PubChem BioAssay data set” (2004)
